Assay results taken from article PMC6199309, “A therapeutic approach to pantothenate kinase associated neurodegeneration” (Nature Communications, 2018).
In brackets after ≈: the same amount, converted by molar mass. Entries after “also recorded” stand apart in the source; their conditions may differ. Structures can show the parent of a compound that is named as a salt.

Legend:
Plasma stability [1] = assay type: in vitro ADME; settings: mouse, read-out: Plasma Stability T1/2
Plasma stability [2] = assay type: in vitro ADME; settings: rat, read-out: Plasma Stability T1/2 (converted)
Plasma stability [3] = assay type: in vitro ADME; settings: human, read-out: Plasma Stability T1/2
PAMPA-BBB = assay type: in vitro ADME; settings: BBB = Blood Brain Barrier, read-out: PAMPA-BBB, Avg Pe
Protein binding [4] = settings: rat
Microsomal stability [5] = settings: mouse, microsomes
Microsomal stability [6] = settings: rat, microsomes
Microsomal stability [7] = settings: human, microsomes
human PANK3 = target: T1, human PANK3 (Homo sapiens, UniProt Q9H999); assay: PANK activity assay (radiochemical, without acetyl-CoA); assay type: biochemical
T1 construct: His; made in house

Caco2 permeability = assay type: in vitro ADME; settings: human, Caco-2; read-out: Caco2 Permeability Efflux Ratio (B2A/A2B)
C3A cells = assay: Intracellular CoA and metabolite levels in C3A cells; assay type: cell-based, human
Description: HEK293T cells (ATCC, #CRL-3216) were maintained in Dulbecco’s modified Eagle’s medium (DMEM, Biowhittaker/Lonza) supplemented with 10% FCS. Human C3A [HepG2/C3A, derivative of HepG2] cells (ATCC #CRL-10741) were purchased from ATCC® and maintained in Eagle’s minimum Essential medium (ATCC) supplemented with 2 mM glutamine, 10% fetal bovine serum (FCS, Altanta Biologicals), 50 U/ml penicillin and […] streptomycin. Both cell lines were confirmed to be mycoplasma-free. […]. […] After 24 h of treatment (total 48 h after transfection) the cells were washed with PBS and harvested and subjected to either total CoA or acetyl-CoA determinations.
Prior to labeling, cells were seeded at a density of 2–3 × 10^6 in 60 mm-dishes in reconstituted DMEM without added pantothenate and allowed to adhere overnight. The labeling was initiated by replacing the medium with 2 ml of labeling medium containing 0.1% dimethylsulfoxide (DMSO; control) or 10 μM of the compound in 0.1% DMSO. Cells were incubated for 24 h, the labeling medium was removed, and cells were washed with phosphate buffered saline and lysed by sonication in 20 mM Tris-HCl, pH 7.5, 2 mM DTT, 5 mM EDTA and 50 mM NaF. The lysates were fractionated by thin-layer chromatography after removal of the cell debris by centrifugation. The samples were spotted on Silica Gel H plates and resolved with 95% ethanol:28% ammonium hydroxide (4/1, v/v). The distribution of radioactivity on the plate was quantified using a Bioscan Imager (Bioscan, Inc.) together with quantification of the total cellular radioactivity determined by a Liquid Scintillation Analyzer (PerkinElmer Tri-Carb 2910 TR). Triplicate culture dishes were labeled for each group plus a dish for each group for determination of cell counts and viability using a Nucleocounter (New Brunswick Scientific) according to the manufacturer’s directions. The experiments were repeated twice in duplicate and the data represented is an overall average ± SEM.
Cultured cells or frozen tissues were resuspended in 2 ml cold water to which 500 μl of 0.25 M KOH was added, derivatized with monobromobimane (mBBr, Life technologies) and quantified by HPLC[23]. For acetyl-CoA determinations, C3A cells were resuspended in 1 ml water, added to 2 ml of methanol and 1 ml chloroform, and incubated on ice for 15 min. Chloroform 1.5 ml, 1.2 ml water and 30 pmol of [^13C2]acetyl-CoA (Sigma) was added, and centrifuged at 2000×g for 10 min. The top layer was loaded on a 2-(2-pyridyl) ethyl solid phase extraction column which was equilibrated with 1 ml 50% methanol/2% acetic acid. The column was washed twice with 1 ml 50% methanol/2% acetic acid and 1 ml water. CoA and thioesters were eluted twice with 1 ml 95% ethanol containing 50 mM ammonium hydroxide. Samples were resuspended in 90% methanol containing 15 mM ammonium hydroxide.
The mBBr derivatized sample was fractionated by reverse-phase HPLC using a Gemini C18 3 μm column (150 × 4.60 mm) from Phenomenex. The chromatography system was a Waters e2695 separation module with a UV/Vis and fluorescence detector and controlled by Empower 3 software. Solvent A was 50 mM potassium phosphate pH 4.6, and solvent B was 100% acetonitrile. Twenty microliters of sample was injected onto the column, and the flow rate was 0.5 ml/min. The HPLC program was the following: starting solvent mixture of 90% A/10% B, 0–2 min isocratic with 10% B, 2–6 min linear gradient from 10% B to 15% B, 6–18 min concave gradient from 15% B to 40% B, 18–23 min isocratic with 40% B, 23–25 min linear gradient from 40 to 10%, and 25–30 min isocratic with 10% B. The UV/vis detector was set at 393 nm, and the fluorescence detector was set with excitation at 393 nm and emission at 470 nm. […]

HEK293T cells = assay: Intracellular CoA levels in transfected HEK293T cells; assay type: cell-based, human; settings: 10 μM, 24 h
Protein binding [8] = settings: mouse
Protein binding [9] = settings: human
[10] = Tissue pantothenate levels in mice; assay type: in vivo; settings: C57Bl6/J, mouse, liver; 200 mg/kg pantothenate by oral gavage, 4 h after last of 5 doses; read-out: calculated intracellular pantothenate concentration in liver
Description: Plasma (10 μl) was added to 800 μl methanol and 190 μl water along with 200 pmol (β-alanyl-^13C3^15N)-pantothenate (^13C^15N-Pan, Sigma). Tissue (30–40 mg) was homogenized in 2 ml of 80% methanol, and 500 pmol of ^13C^15N-Pan was added. The samples were incubated at −80 °C for 4 h. Samples were spun at 3500xg for 10 min to pellet debris, and supernatant was transferred to a new tube and dried using a SpeedVac overnight. Samples were resuspended in water + 0.1% formic acid and spun through a Spin-X Centrifuge Tube Filter (0.22 μm Cellulose Acetate, Costar).
Pantothenate was analyzed using a Shimadzu Prominence UFLC attached to a QTrap 4500 equipped with a Turbo V ion source (Sciex). Samples were injected onto an XSelect® HSS C18, 2.5 μm, 2.1 × 150 mm column using a flow rate of 0.2 ml/min. Solvent A was 0.1% formic acid in water, and Solvent B was acetonitrile + 0.1% formic acid. […] The MRM transition for pantothenate was 220.0 / 184.1 m/z and [^13C^15N]pantothenate was 224.0 / 188.1 m/z both with a declustering potential, 35 V and collision energy, 22 V. The system was controlled by the Analyst® software (Sciex) and analyzed with MultiQuant™ 3.0.2 software (Sciex). Intracellular pantothenate was measured as pmoles/mg wet weight.

T1 sequence (Q9H999 whole entry): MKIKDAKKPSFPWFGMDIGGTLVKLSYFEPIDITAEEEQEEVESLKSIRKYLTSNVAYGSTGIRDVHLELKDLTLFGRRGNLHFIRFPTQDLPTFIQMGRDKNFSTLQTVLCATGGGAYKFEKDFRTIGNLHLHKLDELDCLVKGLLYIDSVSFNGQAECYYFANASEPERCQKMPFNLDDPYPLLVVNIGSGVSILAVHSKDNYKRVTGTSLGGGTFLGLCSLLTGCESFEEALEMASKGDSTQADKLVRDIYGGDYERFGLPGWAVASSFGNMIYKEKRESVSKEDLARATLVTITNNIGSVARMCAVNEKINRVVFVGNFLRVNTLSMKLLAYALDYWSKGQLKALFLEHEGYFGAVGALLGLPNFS

IC50 (human PANK3) [µM] | inhibition of PANK3 (in words) (human PANK3; negative control) | efflux ratio (Caco2 permeability) | fraction unbound (Protein binding [8]) | fraction unbound (Protein binding [9]) | concentration at 4 h [10] [µM] | SMILES | half-life (Plasma stability [1]) [min] | half-life (Plasma stability [2]) [min] | half-life (Plasma stability [3]) [min] | Papp (PAMPA-BBB) [×10⁻⁶ cm/s] | PAMPA; Avg Pe (PAMPA) | fraction unbound (Protein binding [4]) | solubility (Solubility at pH 7.4) [µM] | half-life (Microsomal stability [5]) [min] | half-life (Microsomal stability [6]) [min] | half-life (Microsomal stability [7]) [min] | total intracellular CoA levels in C3A cells (C3A cells; 24 h, increasing concentrations (20 and 50 μM less activating)) | intracellular CoA, PANK3 overexpressing HEK293T cells (HEK293T cells) | CoA content of C3A cells on varying pantothenate in medium (C3A cells; pantothenate alone, without PZ-2891)
 |  |  |  |  |  | CC(C)(C)c1ccc(NC(=O)N2CCN(c3ccc(C#N)cn3)CC2)cc1 [PZ-2789, N-(4-(tert-butyl)phenyl)-4-(5-cyanopyridin-2-yl)piperazine-1-carboxamide] | > 3000 | > 3000 | > 3000 | 303 | 1232 10-6 cm/s | 0.02 | 1.4 (≈ 0.509 µg/mL) | 15.6 | 30.6 | 7.8 |  |  | 
 |  |  |  |  |  | CC(C)c1ccc(CC(=O)N2CCN(c3ccc(C#N)cn3)CC2)cc1 [PZ-2863] |  |  |  |  |  |  | 25 (≈ 8.71 µg/mL) |  |  |  |  |  | 
> 100 | no effect; also recorded: Inactive | 0.5 | 0.04 | 0.04 |  | CC(C)c1ccc(C(=O)CN2CCN(c3ccc(C#N)nn3)CC2)cc1 [PZ-3067, 6-(4-(2-(4-isopropylphenyl)-2-oxoethyl)piperazin-1-yl)pyridazine-3-carbonitrile] | > 3000 | 1620 | > 3000 | 0.8 | 204 10-6 cm/s | 0.1 | 18 (≈ 6.29 µg/mL) | 30.6 | 13.2 | 9 | did not respond | inactive | 
 |  |  |  |  | 24.4 | CC(C)(CO)[C@@H](O)C(=O)NCCC(=O)O [pantothenate, D-pantothenic acid, hemicalcium salt] |  |  |  |  |  |  |  |  |  |  |  |  | no effect on CoA content
